Measured values taken from patent publication US20020068749A1, “AIDS REMEDY” (priority 1996, published 2002).
Values after ≈ are worked out from the molar mass of the structure shown.

Test system: HIV Wild strain (IIIB)
Test: Anti-virus activity IC50 against wild strain
Assay type: cell-based
Conditions: Human immunodeficiency virus 1, IIIB, read-out: Anti-virus activity IC50

Question: `CSC[C@H](NC(=O)COc1cccc2cnccc12)C(=O)N[C@@H](Cc1ccccc1)[C@H](O)C(=O)N1CSC[C@H]1C(=O)NC(C)(C)C` [KNI-272, (R)-N-1,1-dimethylethyl-3-[(2S,3S)-2-hydroxy-3-[(R)-2-(5-isoquinolyloxyacetyl)amino-3-methylthiopropanoyl]amino-4-phenylbutanoyl]-1,3-thiazolidine-4-carboxyamide] was tested. Which IC50 did it give?
Answer: 7 ng/mL (≈ 0.0105 µM)
